According to ChEMBL document CHEMBL1201862, “PubChem BioAssay data set” (2004):
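Tested at 5 concentrations; 48 h exposure; 96-well plates; endpoints linearly interpolated, else capped at highest concentration. GI50 is the concentration that inhibits growth by half.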 Active and inactive are the calls of the source. Cut-off read from the data, not from the text of the source: active = GI50 up to about 1.1 µM and inactive = higher.

Legend:
Assay in all cases: DTP human tumour cell line panel, 48 h
LOX IMVI = system: LOX IMVI
OVCAR-3 = system: OVCAR-3
T47D = system: T47D
NCI-H460 = system: NCI-H460
IGROV-1 = system: IGROV-1
SF-539 = system: SF-539
SR = system: SR
MOLT-4 = system: MOLT-4
PC-3 = system: PC-3
NCI-H522 = system: NCI-H522
A549 = system: A549
MDA-MB-435 = system: MDA-MB-435
TK-10 = system: TK-10
HCT-15 = system: HCT-15
CCRF-CEM = system: CCRF-CEM
COLO 205 = system: COLO 205
SW-620 = system: SW-620
Hs-578T = system: Hs-578T
SNB-75 = system: SNB-75
OVCAR-5 = system: OVCAR-5
HOP-62 = system: HOP-62
SK-OV-3 = system: SK-OV-3
786-0 = system: 786-0
HT-29 = system: HT-29
EKVX = system: EKVX
NCI/ADR-RES = system: NCI/ADR-RES
U-251 = system: U-251
UACC-257 = system: UACC-257
OVCAR-8 = system: OVCAR-8
MDA-MB-231 = system: MDA-MB-231
NCI-H23 = system: NCI-H23
RXF 393 = system: RXF 393
HCT-116 = system: HCT-116
M14 = system: M14
SF-268 = system: SF-268
SF-295 = system: SF-295
ACHN = system: ACHN
CAKI-1 = system: CAKI-1
UACC-62 = system: UACC-62
UO-31 = system: UO-31
SN12C = system: SN12C
HCC 2998 = system: HCC 2998
SK-MEL-28 = system: SK-MEL-28
RPMI-8226 = system: RPMI-8226
NCI-H226 = system: NCI-H226
A498 = system: A498
K562 = system: K562
HOP-92 = system: HOP-92
KM12 = system: KM12
MCF7 = system: MCF7
DU-145 = system: DU-145
MDA-N = system: MDA-N
SK-MEL-5 = system: SK-MEL-5
HL-60 = system: HL-60
Malme-3M = system: Malme-3M
SNB-19 = system: SNB-19
OVCAR-4 = system: OVCAR-4
SK-MEL-2 = system: SK-MEL-2
BT-549 = system: BT-549

O=[N+]([O-])/C=C1\COCc2cc3c(cc21)OCO3
GI50 (LOX IMVI): 27.2 µM (inactive) | GI50 (OVCAR-3): 16.8 µM (inactive) | GI50 (T47D): 15.9 µM (inactive) | GI50 (NCI-H460): 30.9 µM (inactive) | GI50 (IGROV-1): 35.6 µM (inactive) | GI50 (SF-539): 26.4 µM (inactive) | GI50 (SR): 18.9 µM (inactive) | GI50 (MOLT-4): 24.5 µM (inactive) | GI50 (PC-3): 12.3 µM (inactive) | GI50 (NCI-H522): 20.7 µM (inactive) | GI50 (A549): 22 µM (inactive) | GI50 (MDA-MB-435): 14.5 µM (inactive) | GI50 (TK-10): 22.8 µM (inactive) | GI50 (HCT-15): 19.1 µM | GI50 (CCRF-CEM): 10.6 µM (inactive) | GI50 (COLO 205): 23.1 µM (inactive) | GI50 (SW-620): 22.1 µM (inactive) | GI50 (Hs-578T): 26.9 µM (inactive) | GI50 (SNB-75): 16.5 µM (inactive) | GI50 (OVCAR-5): 19.9 µM (inactive) | GI50 (HOP-62): 38.9 µM (inactive) | GI50 (SK-OV-3): 42.7 µM (inactive) | GI50 (786-0): 19.3 µM (inactive) | GI50 (HT-29): 25.1 µM (inactive) | GI50 (EKVX): 28.1 µM (inactive) | GI50 (NCI/ADR-RES): 18 µM (inactive) | GI50 (U-251): 18.6 µM (inactive) | GI50 (UACC-257): 19.7 µM (inactive) | GI50 (OVCAR-8): 27.8 µM (inactive) | GI50 (MDA-MB-231): 14.4 µM (inactive) | GI50 (NCI-H23): 12.1 µM (inactive) | GI50 (RXF 393): 17.9 µM (inactive) | GI50 (HCT-116): 21.2 µM (inactive) | GI50 (M14): 13.4 µM (inactive) | GI50 (SF-268): 27.2 µM (inactive) | GI50 (SF-295): 44 µM (inactive) | GI50 (ACHN): 20.8 µM (inactive) | GI50 (CAKI-1): 13 µM (inactive) | GI50 (UACC-62): 21.1 µM (inactive) | GI50 (UO-31): 18.9 µM (inactive) | GI50 (SN12C): 22.5 µM (inactive) | GI50 (HCC 2998): 18 µM (inactive) | GI50 (SK-MEL-28): 17.5 µM (inactive) | GI50 (RPMI-8226): 21.7 µM (inactive) | GI50 (NCI-H226): 34 µM (inactive) | GI50 (A498): 18.8 µM (inactive) | GI50 (K562): 27.2 µM (inactive) | GI50 (HOP-92): 30.7 µM (inactive) | GI50 (KM12): 15.1 µM (inactive) | GI50 (MCF7): 18.5 µM (inactive) | GI50 (DU-145): 19.1 µM (inactive) | GI50 (MDA-N): 18.9 µM (inactive) | GI50 (SK-MEL-5): 19.6 µM (inactive) | GI50 (HL-60): 25.2 µM (inactive)

CC[C@]1(Cc2ccc(OC)c(OC)c2)C=[N+]([O-])O[C@H](OCc2ccccc2)[C@@H]1OC(C)=O
GI50 (LOX IMVI): 17.5 µM (inactive) | GI50 (Malme-3M): 20.7 µM (inactive) | GI50 (OVCAR-3): 15.8 µM (inactive) | GI50 (T47D): 20 µM (inactive) | GI50 (NCI-H460): 31 µM (inactive) | GI50 (IGROV-1): 25.1 µM (inactive) | GI50 (SR): 24.3 µM (inactive) | GI50 (MOLT-4): 6.34 µM (inactive) | GI50 (PC-3): 20.5 µM (inactive) | GI50 (NCI-H522): 12.4 µM (inactive) | GI50 (A549): 36.2 µM (inactive) | GI50 (MDA-MB-435): 38.4 µM (inactive) | GI50 (TK-10): 41.7 µM (inactive) | GI50 (HCT-15): 29.8 µM | GI50 (CCRF-CEM): 19.6 µM (inactive) | GI50 (COLO 205): 17.1 µM (inactive) | GI50 (SW-620): 32.8 µM (inactive) | GI50 (Hs-578T): 20.4 µM (inactive) | GI50 (SNB-75): 30.5 µM (inactive) | GI50 (OVCAR-5): 59.7 µM (inactive) | GI50 (HOP-62): 34.2 µM (inactive) | GI50 (SK-OV-3): 48.9 µM (inactive) | GI50 (786-0): 36.2 µM (inactive) | GI50 (HT-29): 29.5 µM (inactive) | GI50 (EKVX): 16.5 µM (inactive) | GI50 (NCI/ADR-RES): 33.3 µM (inactive) | GI50 (U-251): 32.3 µM (inactive) | GI50 (UACC-257): 21.3 µM (inactive) | GI50 (OVCAR-8): 30.3 µM (inactive) | GI50 (MDA-MB-231): 36.4 µM (inactive) | GI50 (NCI-H23): 34.9 µM (inactive) | GI50 (RXF 393): 18.2 µM (inactive) | GI50 (M14): 33.5 µM (inactive) | GI50 (SF-268): 23.7 µM (inactive) | GI50 (SF-295): 53.6 µM (inactive) | GI50 (ACHN): 27.6 µM (inactive) | GI50 (SNB-19): 58.3 µM (inactive) | GI50 (CAKI-1): 24.8 µM (inactive) | GI50 (UACC-62): 26.2 µM (inactive) | GI50 (UO-31): 32.1 µM (inactive) | GI50 (HCC 2998): 45.7 µM (inactive) | GI50 (OVCAR-4): 24.1 µM (inactive) | GI50 (SK-MEL-28): 25.8 µM (inactive) | GI50 (SK-MEL-2): 23 µM (inactive) | GI50 (RPMI-8226): 18.2 µM (inactive) | GI50 (NCI-H226): 19.3 µM (inactive) | GI50 (A498): 32.7 µM (inactive) | GI50 (K562): 20.9 µM (inactive) | GI50 (HOP-92): 23.9 µM (inactive) | GI50 (KM12): 22.2 µM (inactive) | GI50 (MCF7): 29.7 µM (inactive) | GI50 (DU-145): 23.6 µM (inactive) | GI50 (MDA-N): 36.1 µM (inactive) | GI50 (SK-MEL-5): 27.9 µM (inactive) | GI50 (HL-60): 16.6 µM (inactive)

N#Cc1c(-c2ccccc2)cc(Nc2cccc(C(F)(F)F)c2)n2c1nc1ccccc12
GI50 (LOX IMVI): 1.2 µM (inactive) | GI50 (Malme-3M): 1.27 µM (inactive) | GI50 (OVCAR-3): 0.561 µM (active) | GI50 (T47D): 0.764 µM (active) | GI50 (NCI-H460): 0.766 µM (active) | GI50 (SF-539): 2.22 µM (inactive) | GI50 (MOLT-4): 0.76 µM (active) | GI50 (NCI-H522): 0.245 µM (active) | GI50 (MDA-MB-435): 2.01 µM (inactive) | GI50 (TK-10): 2.56 µM (inactive) | GI50 (HCT-15): 1.38 µM | GI50 (COLO 205): 1.04 µM (active) | GI50 (SW-620): 3.05 µM (inactive) | GI50 (SNB-75): 1.82 µM (inactive) | GI50 (OVCAR-5): 2.68 µM (inactive) | GI50 (HOP-62): 1.77 µM (inactive) | GI50 (SK-OV-3): 1.11 µM (active) | GI50 (786-0): 1.54 µM (inactive) | GI50 (HT-29): 1.16 µM (inactive) | GI50 (EKVX): 1.2 µM (inactive) | GI50 (NCI/ADR-RES): 1.33 µM (inactive) | GI50 (U-251): 0.611 µM (active) | GI50 (UACC-257): 0.733 µM (active) | GI50 (OVCAR-8): 1.01 µM (active) | GI50 (MDA-MB-231): 1.71 µM (inactive) | GI50 (NCI-H23): 0.336 µM (active) | GI50 (RXF 393): 1.99 µM (inactive) | GI50 (HCT-116): 0.471 µM (active) | GI50 (SF-268): 1.29 µM (inactive) | GI50 (SF-295): 1.7 µM (inactive) | GI50 (ACHN): 1.88 µM (inactive) | GI50 (CAKI-1): 1.91 µM (inactive) | GI50 (SN12C): 0.519 µM (active) | GI50 (BT-549): 3.82 µM (inactive) | GI50 (OVCAR-4): 0.912 µM (active) | GI50 (SK-MEL-28): 9.12 µM (inactive) | GI50 (RPMI-8226): 0.237 µM (active) | GI50 (NCI-H226): 0.687 µM (active) | GI50 (A498): 1.64 µM (inactive) | GI50 (HOP-92): 0.206 µM (active) | GI50 (KM12): 2.17 µM (inactive) | GI50 (DU-145): 4.04 µM (inactive) | GI50 (MDA-N): 1.4 µM (inactive) | GI50 (SK-MEL-5): 0.548 µM (active)
